Molecules are shown by their SMILES. Active and inactive are the calls of the source. The calls are words filed in the database; no cut-off is given here.

We go through six compounds from ChEMBL document CHEMBL3392982, “Synthesis and membrane-protective activity of novel derivatives of α-mangostin at the C-4 position” (Bioorg Med Chem Lett, 2015).

Data set [1] in a line: Toxicity in mouse erythrocytes assessed as induction of hemolysis at 10 and 30 uM incubated for 5 hrs. The format is cell-based. The conditions noted are these: erythrocyte.
In data set [2] the test system is Erythrocyte. The experiment in a line: Membrane-protective activity in mouse erythrocytes assessed as inhibition of H2O2-induced hemolysis at 10 to 30 uM pre-incubated for 30 mins before H2O2 injection and measured 5 hrs post H2O2 injection. Type of data set: functional, cell-based.
Data set [3] has as its system Erythrocyte. The experiment in a line: Antioxidant activity in mouse erythrocytes assessed as inhibition of H2O2-induced secondary lipid peroxidation at 1 to 30 uM pre-incubated for 30 mins before H2O2 injection and measured 4 hrs post H2O2 injection by TBARS detection based spectrophotometry. The format is functional, cell-based.
In data set [4] the test system is Erythrocyte. The experiment in a line: Inhibition of H2O2-induced oxyhemoglobin oxidation in mouse erythrocytes assessed as metHb/oxyHb ratio level at 1 uM pre-incubated for 30 mins before H2O2 injection and measured 5 hrs post H2O2 injection. Type of data set: functional. Set-up: scale not given: the % may be the effect or the level left.
The test system of data set [5] is Erythrocyte. The experiment in a line: Inhibition of H2O2-induced oxyhemoglobin oxidation in mouse erythrocytes assessed as metHb/oxyHb ratio level at 10 uM pre-incubated for 30 mins before H2O2 injection and measured 5 hrs post H2O2 injection. Type of data set: functional. On the set-up: scale not given: the % may be the effect or the level left.
Data set [6] concerns Erythrocyte. The data set is described as follows: Inhibition of H2O2-induced oxyhemoglobin oxidation in mouse erythrocytes assessed as metHb/oxyHb ratio level at 30 uM pre-incubated for 30 mins before H2O2 injection and measured 5 hrs post H2O2 injection. The format is functional. Set-up: scale not given: the % may be the effect or the level left.
Data set [7] relates to Erythrocyte. The experiment in a line: Inhibition of H2O2-induced oxyhemoglobin oxidation in mouse erythrocytes assessed as ferrylHb/oxyHb ratio level at 1 uM pre-incubated for 30 mins before H2O2 injection and measured 5 hrs post H2O2 injection. Type of data set: functional. On the set-up: scale not given: the % may be the effect or the level left.
Data set [8] deals with Erythrocyte. The data set is described as follows: Inhibition of H2O2-induced oxyhemoglobin oxidation in mouse erythrocytes assessed as ferrylHb/oxyHb ratio level at 10 uM pre-incubated for 30 mins before H2O2 injection and measured 5 hrs post H2O2 injection. The format is functional. On the set-up: scale not given: the % may be the effect or the level left.
Data set [9] concerns Erythrocyte. The experiment in a line: Inhibition of H2O2-induced oxyhemoglobin oxidation in mouse erythrocytes assessed as ferrylHb/oxyHb ratio level at 30 uM pre-incubated for 30 mins before H2O2 injection and measured 5 hrs post H2O2 injection. The format is functional. Set-up: scale not given: the % may be the effect or the level left.
Data set [10] relates to Erythrocyte. The experiment in a line: Membrane-protective activity in mouse erythrocytes assessed as inhibition of H2O2-induced hemolysis at 1 uM pre-incubated for 30 mins before H2O2 injection and measured 5 hrs post H2O2 injection. Type of data set: functional, cell-based.
Data set [11] has as its system Erythrocyte. The experiment in a line: Membrane-protective activity in mouse erythrocytes assessed as inhibition of H2O2-induced hemolysis pre-incubated for 30 mins before H2O2 injection and measured 5 hrs post H2O2 injection. Type of data set: functional, cell-based.
The nature of data set [12]: Toxicity in H2O2-induced mouse erythrocytes assessed as induction of hemolysis at 30 uM pre-incubated for 30 mins before H2O2 injection and measured 5 hrs post H2O2 injection. The format is cell-based. Particulars: erythrocyte.
Data set [13] is described as follows: Toxicity in rabbit erythrocytes assessed as induction of cell death at 7.8 to 15.6 uM within 1 hr. Type of data set: cell-based, Oryctolagus cuniculus, Erythrocyte. Particulars: read-out: Activity.
Data set [14] is described as follows: Toxicity in rabbit erythrocytes assessed as induction of hemolysis at 10 uM within 1 hr. Particulars: read-out: Activity. The format is cell-based, Oryctolagus cuniculus, Erythrocyte.
Data set [15] has as its system Erythrocyte. The experiment in a line: Membrane-protective activity in mouse erythrocytes assessed as inhibition of H2O2-induced hemolysis at 30 uM pre-incubated for 30 mins before H2O2 injection and measured 5 hrs post H2O2 injection. The format is functional, cell-based.

Take `COc1c(O)cc2oc3c(CN4CCCCC4)c(O)c(CC=C(C)C)c(O)c3c(=O)c2c1CC=C(C)C`: the Activity entry in data set [1] is reported as “Non-toxic”; in the data set with Erythrocyte [4], 56.9%; in the data set with Erythrocyte [5], 40.7%; with Erythrocyte [6], 24%; in the data set with Erythrocyte [7], 58%; with Erythrocyte [8], 32.3%. The Activity with Erythrocyte [9] is recorded as 18.5%. For the same compound, the result in the data set on Erythrocyte [2] and in the data set on Erythrocyte [3] was Active.

Take `COc1c(O)cc2oc3c(Cc4cc([C@H]5C[C@@H]6CC[C@@]5(C)C6(C)C)c(O)c([C@@H]5C[C@H]6CC[C@]5(C)C6(C)C)c4)c(O)c(CC=C(C)C)c(O)c3c(=O)c2c1CC=C(C)C`: the Activity result is “Non-toxic” in data set [1]; 60.1% with Erythrocyte [4]; 77.3% with Erythrocyte [5]; 105.6% with Erythrocyte [6]; 61.5% in the data set with Erythrocyte [7]; 70.9% with Erythrocyte [8]. Besides, the Activity in the data set on Erythrocyte [9] is 64.2%. The outcome in the data set with Erythrocyte [10] and in the data set on Erythrocyte [3] was Active.

`COc1c(O)cc2oc3c(CN(C)C)c(O)c(CC=C(C)C)c(O)c3c(=O)c2c1CC=C(C)C`: the Activity entry in data set [1] was “Non-toxic”; in the data set with Erythrocyte [11] it was “Dose-dependent effect”; in data set [12] it was “Toxic”; with Erythrocyte [4], 65.8%; with Erythrocyte [5], 37.5%; in the data set with Erythrocyte [6], 196.4%. Besides, the Activity was 67.4% in the data set with Erythrocyte [7], 35.5% in the data set on Erythrocyte [8] and 162.3% with Erythrocyte [9]. The outcome in the data set with Erythrocyte [3] was Active.

As for `COc1c(O)cc2oc3cc(O)c(CC=C(C)C)c(O)c3c(=O)c2c1CC=C(C)C` [MANGOSTIN], the Activity entry is “Toxic” in data set [1]; “Dose-dependent effect” with Erythrocyte [11]; “Toxic” in data set [12]; 44.7% in the data set on Erythrocyte [4]; 45.5% in the data set with Erythrocyte [5]; 55.3% in the data set with Erythrocyte [7]. For the same compound, the Activity in the data set on Erythrocyte [8] is given as 39.5%. Further, the hemolysis at 1 h, up to 15.6 µM in [13] was 10.5%. Besides, the hemolysis at 1 h, 10 µM in data set [14] amounted to 10.1%. The outcome in the data set with Erythrocyte [3] was Active.

Turning to `COc1c(O)cc2oc3c(CN4CCOCC4)c(O)c(CC=C(C)C)c(O)c3c(=O)c2c1CC=C(C)C`, the Activity entry in [1] is given as “Non-toxic”; in the data set on Erythrocyte [4], 112.5%; with Erythrocyte [5], 42.7%; with Erythrocyte [6], 27.9%; with Erythrocyte [7], 91.8%; with Erythrocyte [8], 37.1%. For the same compound, the Activity with Erythrocyte [9] worked out at 25.2%. Also, the result in the data set with Erythrocyte [2] and with Erythrocyte [3] was Active.

Take `COc1c(O)cc2oc3c(Cc4cc(C(C)(C)C)c(O)c(C(C)(C)C)c4)c(O)c(CC=C(C)C)c(O)c3c(=O)c2c1CC=C(C)C`: the Activity result in [1] is given as “Non-toxic”; with Erythrocyte [4] it was 98.4%; in the data set on Erythrocyte [5] it was 63.8%; in the data set with Erythrocyte [6], 35.5%; in the data set with Erythrocyte [7], 81%; in the data set with Erythrocyte [8], 53.3%. Further, in the data set on Erythrocyte [9], the Activity worked out at 22.5%. For the same compound, the outcome with Erythrocyte [15] and with Erythrocyte [3] was Active.
